# Test results published in US20230338391A1, “TREATMENT FOR DEPRESSION” (TAKEDA PHARMACEUTICAL COMPANY LIMITED, priority 2020, published 2023).
# “And” between values parts separate entries of the source, which are not always exact repeats. Equal values may be shown once. Read-outs that look alike come from different tables or passages of the source.
# Tests used:
# healthy subjects = assay: TMS crossover study: safety and tolerability; conditions: single doses 0.5 mg and 6 mg oral tablets
# [1] = 14-day rat neurotoxicology study: toxicokinetics; assay type: in vivo, Sprague-Dawley rats; conditions: for AUC / concentration at 15 day / Cmax: Sprague-Dawley, rat, plasma; for concentration at 15 day: read-out: plasma level at the time of sacrifice
# Description: An appropriate amount of methylcellulose (MC) was weighed and mixed with a small amount of warm water for injection. The mixture was then diluted with water for injection to make a 0.5% (w/v) MC solution. The vehicle was used for dosing in the control group. To make a 40 mg/mL suspension of COMPOUND A, an appropriate amount of the test article was weighed and mixed with the vehicle using a planetary centrifugal mixer and the mixture was then diluted with additional vehicle. The 40 mg/mL suspension was used to make 20 and 10 mg/mL suspensions by stepwise dilutions with the vehicle. The dosing suspensions were stored in a refrigerator (actual values: 3.7° C. to 6.1° C., acceptable range: 2° C. to 8° C.) under light-resistant conditions (tight container) and used within 8 days after preparation.
# Males and females in good condition were selected for this study based on examinations within 4 days before the first dosing. Based on their body weights, animals were stratified and allocated randomly to 3 main study groups, each composed of 18 males and 18 females, and 2 satellite groups each composed of 9 males and 9 females for determination of plasma drug and metabolite concentrations. Surplus animals after animal selection were excluded from the study on the day after the animal selection or the day dosing commenced (Day 1).
# Referring to Tables 4A and 4B, the plasma concentrations of COMPOUND A on Days 2, 7, and 14 were determined in each satellite group. Blood samples (approximately 0.25 mL) were drawn without anesthesia from the subclavian vein of 3 animals of each sex in the satellite groups at each sampling point using sodium-heparinized syringes. Sampling points were as follows: pre-dose and at 1, 2, 4, 8, and 24 hours post-dose. In addition, the plasma concentrations of COMPOUND A before scheduled necropsy were determined in each main study group. The plasma samples (≥0.08 mL) in polypropylene tubes were frozen and stored in a freezer (actual values: −87.0° C. to −83.5° C.) until shipment with parallel quality control (QC) samples prepared by test site 2 and stored under the same conditions as study plasma samples in the test facility. The samples, including the parallel QC samples, were packed with dry ice and shipped to test site 2. The samples were stored frozen at −85.8° C. to −75.5° C. until assay. The plasma concentrations of COMPOUND A and its metabolites, were determined by liquid chromatography/tandem mass spectrometry (LC/MS/MS) and the TK parameters (tmax, Cmax, and AUC24 value) on Days 2, 7, and 14 were calculated for the satellite groups at test site 2.
structure (smiles),measurement,setting,value
"CC1=CN2CCS(=O)(=O)N=C2C(c2ccc(OC3CCCCC3)cc2)=N1 [COMPOUND A, 9-[4-(Cyclohexyloxy)phenyl]-7-methyl-3,4-dihydropyrazino[2,1-c][1,2,4]thiadiazine 2,2-dioxide]",deaths or SAEs,healthy subjects,No deaths or SAEs were reported
same,plasma level at the time of sacrifice,"[1]; Day 15, females at 200 mg/kg/day not observed to convulse, no brain histopathology, individual animals, 200 mg/kg/day",192 ng/mL and 968 ng/mL and 114 ng/mL
same,plasma level at the time of sacrifice,"[1]; Day 15, females at 200 mg/kg/day with lesions visible with Fluoro-Jade only, individual animals, 200 mg/kg/day",138 ng/mL
same,AUC,"[1]; both sexes, oral, 100 mg/kg/day, NOAEL 100 mg/kg/day, read-out: NOAEL exposure cap (AUC) from the 14-day neurotoxicity study in rats",17400 ng·h/mL
same,concentration at 15 day,"[1]; female, oral, 200 mg/kg/day, Day 15, female at 200 mg/kg/day with lesions visible with both HE and Fluoro-Jade, individual animal",935 ng/mL
same,concentration at 15 day,"[1]; female, oral, 200 mg/kg/day, Day 15, females at 200 mg/kg/day with lesions visible with Fluoro-Jade only, individual animals",182 ng/mL
same,Cmax,"[1]; female, po, 100 mg/kg/day, 100 mg/kg/day oral, female, Day 2",1640 ng/mL
same,AUC,"[1]; female, po, 100 mg/kg/day, 100 mg/kg/day oral, female, Day 2, read-out: AUC24",20500 ng·h/mL
same,Cmax,"[1]; female, po, 100 mg/kg/day, 100 mg/kg/day oral, female, Day 7",1270 ng/mL
same,AUC,"[1]; female, po, 100 mg/kg/day, 100 mg/kg/day oral, female, Day 7, read-out: AUC24",14900 ng·h/mL
same,Cmax,"[1]; female, po, 100 mg/kg/day, 100 mg/kg/day oral, female, Day 14",1670 ng/mL
same,AUC,"[1]; female, po, 100 mg/kg/day, 100 mg/kg/day oral, female, Day 14, read-out: AUC24",17800 ng·h/mL
same,Cmax,"[1]; female, po, 200 mg/kg/day, 200 mg/kg/day oral, female, Day 2",1630 ng/mL
same,AUC,"[1]; female, po, 200 mg/kg/day, 200 mg/kg/day oral, female, Day 2, read-out: AUC24",18000 ng·h/mL
same,Cmax,"[1]; female, po, 200 mg/kg/day, 200 mg/kg/day oral, female, Day 7",2340 ng/mL
same,AUC,"[1]; female, po, 200 mg/kg/day, 200 mg/kg/day oral, female, Day 7, read-out: AUC24",31800 ng·h/mL
same,Cmax,"[1]; female, po, 200 mg/kg/day, 200 mg/kg/day oral, female, Day 14",2210 ng/mL
same,AUC,"[1]; female, po, 200 mg/kg/day, 200 mg/kg/day oral, female, Day 14, read-out: AUC24",27600 ng·h/mL
same,Cmax,"[1]; male, po, 50 mg/kg/day, 50 mg/kg/day oral, male, Day 2",836 ng/mL
same,AUC,"[1]; male, po, 50 mg/kg/day, 50 mg/kg/day oral, male, Day 2, read-out: AUC24",9480 ng·h/mL
same,Cmax,"[1]; male, po, 50 mg/kg/day, 50 mg/kg/day oral, male, Day 7",841 ng/mL
same,AUC,"[1]; male, po, 50 mg/kg/day, 50 mg/kg/day oral, male, Day 7, read-out: AUC24",10700 ng·h/mL
same,Cmax,"[1]; male, po, 50 mg/kg/day, 50 mg/kg/day oral, male, Day 14",728 ng/mL
same,AUC,"[1]; male, po, 50 mg/kg/day, 50 mg/kg/day oral, male, Day 14, read-out: AUC24",8750 ng·h/mL
same,Cmax,"[1]; male, po, 100 mg/kg/day, 100 mg/kg/day oral, male, Day 2",1200 ng/mL
same,AUC,"[1]; male, po, 100 mg/kg/day, 100 mg/kg/day oral, male, Day 2, read-out: AUC24",15000 ng·h/mL
same,Cmax,"[1]; male, po, 100 mg/kg/day, 100 mg/kg/day oral, male, Day 7",917 ng/mL
same,AUC,"[1]; male, po, 100 mg/kg/day, 100 mg/kg/day oral, male, Day 7, read-out: AUC24",13000 ng·h/mL
same,Cmax,"[1]; male, po, 100 mg/kg/day, 100 mg/kg/day oral, male, Day 14",1290 ng/mL
same,AUC,"[1]; male, po, 100 mg/kg/day, 100 mg/kg/day oral, male, Day 14, read-out: AUC24",17000 ng·h/mL
